The source of these data is patent US11834470B2, “4-thioribose NAD analogues and methods of synthesizing and using the same” (University of Southern California, priority 2018, dated 2023).

What all share (type): biochemical
In assay [1] the target is T1, human CD38 (Homo sapiens, UniProt P28907, N100D/N164A/N209D/N219D).
T1 construct: His6 (N, cleaved yes); TEV protease cleavage site (N, cleaved yes); made in house; host or cells: Expi293 cells, secreted, transient transfection (pFuse vector)
T1 sequence (P28907 45-300 N100D/N164A/N209D/N219D): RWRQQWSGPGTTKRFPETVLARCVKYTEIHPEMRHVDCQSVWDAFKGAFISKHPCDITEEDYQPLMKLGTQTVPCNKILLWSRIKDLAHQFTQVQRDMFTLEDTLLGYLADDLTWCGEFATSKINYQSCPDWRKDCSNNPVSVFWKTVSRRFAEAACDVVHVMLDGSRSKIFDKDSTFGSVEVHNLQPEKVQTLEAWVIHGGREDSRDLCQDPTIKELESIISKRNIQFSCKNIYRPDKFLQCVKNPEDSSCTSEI
Briefly: continuous fluorescence-based CD38 cyclase activity assay with NGD+ as substrate (cGDPR formation).
Protocol: Recombinant human CD38 (8 nM) was incubated with 50 μM NGD^+ in the presence of varied concentrations of S-NAD^+. CD38 cyclase activities were monitored on the basis of the formation of fluorescent cGDPR as measured at 410 nm.
NGD^+ (Sigma-Aldrich, MO) was used as a substrate to determine ADP-ribosyl cyclase activity of purified CD38, because cyclic GDP-ribose (cGDPR) product is characterized by distinctive UV absorbance at 295 nm and fluorescence emission at 410 nm (excitation at 300 nm).^5 To characterize kinetic parameters, reactions were initiated by additions of recombinant CD38 (8.3 nM final) into assay wells with various concentrations of NGD^+ in 20 mM MES, pH 6.5, followed by monitoring the reactions through fluorescence at 410 nm (excitation at 300 nm) to determine initial reaction rates. Inhibition activities of S-NAD^+ were determined by carried out enzymatic formation of cyclic GDP-ribose in the presence of S-NAD^+. […] All reactions were carried out in black 96-well plates and the resulting fluorescence was measured using a BioTek Synergy H1 Hybrid Multi-Mode Microplate Reader (BioTek, VT) in the kinetic mode. The Km of NGD^+ for CD38 was calculated by fitting data with Michaelis-Menten function implemented in GraphPad Prism (La Jolla, CA). […]

Another assay has as its target T2, human NMNAT (Homo sapiens, UniProt Q9HAN9).
T2 construct: made in house; host or cells: E. coli BL21 (DE3), pET-28a(+)
Briefly: enzymatic conversion by purified NRK1 and NMNAT1 with ATP, HPLC: NMNAT step. Particulars: 6 mM ATP, 5 μM NRK1 and 5 μM NMNAT1, RT; relative to NMN. As to the method:
(§1) FIGS. 4A-4D: HPLC analysis of enzymatic synthesis of S-NAD^+ by the purified NRK1 and NMNAT1 as measured by UV absorbance at 260 nm. 2 mM S—NR was incubated with 6 mM ATP and 5 μM NRK1 and 5 μM NMNAT1 at RT for 0 h (FIG. 4A), 0.5 h (FIG. 4B), 1 h (FIG. 4C), and 4 h (FIG. 4D), followed by HPLC analysis.
(§2) Purified S—NR (0.5 mg in the form of bromide salt) was incubated with 6 mM ATP, 5 uM of purified NRK1 and NMNAT1 at the final concentration of 2 mM at room temperature for overnight in the reaction buffer (50 mM Tris, 100 mM NaCl, 12 mM MgCl2, 1 mM DTT, and pH 7.5). After centrifugation at 4,000 g for 5 minutes, supernatants were analyzed by HPLC and the fraction containing S-NAD^+ (0.68 mg, 70%) were pooled and confirmed by both NMR and mass spectrometry. All analysis and purifications on HPLC were performed with a semipreparative C18 Kinetex column (5 μm, 100 Å, 150×10.0 mm, from Phenomenex Inc, Torrance, CA) using the following method, mobile phase A: 0.1% formic acid (aq); mobile phase B: 0.1% formic acid in methanol; flow rate: 2.0 ml/min; 0-2 min: 0-4% B, 2-4 min: 4-10% B; 4-6 min: 10-20% B; 6-9 min: 20% B; 9-12 min: 20-50% B; and 12-14 min: 50-0% B.
(§3) Human NRK1 and NMNAT1 were then expressed and purified from Escherichia coli (FIG. 1). In vitro biosynthesis of NAD^+ and S-NAD^+ from NR and S—NR, respectively, were carried out using purified NRK1 and NMNAT1. […]

Assay [2] has as its target T1, human CD38. Briefly: substrate activity with human CD38, overnight incubation, HPLC analysis. Particulars: 1 mM compound, 13.4 nM recombinant human CD38, 50 mM MES pH 6.5, room temperature overnight. As for the experimental part:
FIGS. 15A-15D: Activity of NAD^+ and S-NAD^+ for human CD38. HPLC analysis of substrate activities of NAD^+ (FIG. 15A-15B) and S-NAD^+ (FIG. 15C-15D) with human CD38 as measured by UV absorbance at 260 nm. 1 mM NAD^+ or S-NAD^+ was incubated without and with CD38 at RT overnight, followed by HPLC analysis.
1 mM S-NAD^+ and NAD^+ in 50 mM MES, pH 6.5 were incubated with 13.4 nM recombinant human CD38 for overnight at room temperature, followed HPLC analysis of the reaction mixtures. HPLC analysis was performed with a semipreparative C18 Kinetex column (5 μm, 100 Å, 150×10.0 mm, from Phenomenex Inc, Torrance, CA) using following method: mobile phase A: 0.1% formic acid (aq); mobile phase B: 0.1% formic acid in methanol; flow rate: 2.0 ml/min; 0-2 min: 0-4% B, 2-4 min: 4-10% B; 4-6 min: 10-20% B; 6-9 min: 20% B; 9-12 min: 20-50% B; and 12-14 min: 50-0% B.

Assay [3] deals with T3, Bovine glutamate dehydrogenase (GDH) (Bos taurus, UniProt P00366).
T3 construct: purchased Sigma-Aldrich (St. Louis, MO)
T3 sequence (P00366 58-558): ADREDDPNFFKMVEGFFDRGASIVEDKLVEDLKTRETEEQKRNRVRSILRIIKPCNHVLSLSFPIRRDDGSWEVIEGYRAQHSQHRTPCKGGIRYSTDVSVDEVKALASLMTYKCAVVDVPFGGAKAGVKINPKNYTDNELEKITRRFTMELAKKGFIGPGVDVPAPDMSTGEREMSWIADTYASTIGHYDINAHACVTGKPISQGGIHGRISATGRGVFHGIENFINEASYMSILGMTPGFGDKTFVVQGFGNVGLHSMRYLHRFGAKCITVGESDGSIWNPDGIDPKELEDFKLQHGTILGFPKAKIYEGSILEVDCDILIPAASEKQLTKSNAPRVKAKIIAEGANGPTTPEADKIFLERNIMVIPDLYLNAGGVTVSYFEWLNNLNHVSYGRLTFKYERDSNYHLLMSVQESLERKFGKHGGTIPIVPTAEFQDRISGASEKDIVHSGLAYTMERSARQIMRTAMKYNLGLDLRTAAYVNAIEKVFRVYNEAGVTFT
The assay is described as follows: substrate activity with redox enzyme GDH (UV 340 nm and HPLC). Particulars: for HPLC analysis of reduction by bovine GDH: 0.5 mM compound, 2 mM L-glutamate, 20 unit/ml GDH, 30 minutes, peaks confirmed by mass spectrometry. As for the experimental part:
(§4) Bovine glutamate dehydrogenase (GDH) and Leuconostoc mesenteroides glucose-6-phosphate dehydrogenase (G6PDH) were purchased from Sigma-Aldrich (St. Louis, MO) and used for determining the substrate activities of NAD^+ and S-NAD^+. To examine substrate activity with bovine GDH, 0.1 mM NAD^+ or S-NAD^+ was incubated with 1 mM L-glutamate and 0.1 unit/ml GDH in buffer containing 2 mM DTT, 50 mM Tris, pH 7.5 for 15 minutes at room temperature. To determine substrate activity with G6PDH, 0.5 mM NAD^+ or S-NAD^+ was incubated with 5 mM D-glucose 6-phosphate and 0.01 unit/ml G6PDH in buffer containing 5 mM MgCl2, 50 mM Tris, pH 7.5 for 15 minutes at room temperature. Formation of NADH and S-NADH were monitored by UV absorbance at 340 nm under kinetic mode using a NanoDrop 2000C spectrophotometer (Thermo Scientific, MA).
(§5) To examine the bovine GDH-catalyzed reactions, 0.5 mM NAD^+ or S-NAD^+ was incubated with 2 mM L-glutamate and 20 unit/ml GDH in buffer containing 2 mM DTT, 50 mM Tris, pH 7.5 for 30 minutes at room temperature, followed by HPLC analysis with detection of UV absorbance at 340 nm. To evaluate the L. mesenteroides G6PDH-catalyzed reactions, 0.5 mM NAD^+ or S-NAD^+ was incubated with 5 mM D-glucose 6-phosphate and 10 unit/ml G6PDH in buffer containing 5 mM MgCl2, 50 mM Tris, pH 7.5 for 30 minutes at room temperature, followed by HPLC analysis with detection of UV absorbance at 340 nm. The HPLC method used for analysis of reactions by GDH and G6PDH was the same as described above.

Assay [4] has as its target T4, Leuconostoc mesenteroides glucose-6-phosphate dehydrogenase (G6PDH) (Leuconostoc mesenteroides, UniProt P11411).
T4 construct: purchased Sigma-Aldrich (St. Louis, MO)
Briefly: substrate activity with redox enzyme G6PDH (UV 340 nm and HPLC). Particulars: 0.5 mM compound, 5 mM D-glucose 6-phosphate; for HPLC analysis of reduction by L. mesenteroides G6PDH: 10 unit/ml G6PDH, 30 minutes, peaks confirmed by mass spectrometry. As to the method: as §4, §5

A further assay concerns human NRK. The assay is described as follows: enzymatic conversion by purified NRK1 and NMNAT1 with ATP, HPLC: NRK step. Particulars: 2 mM S-NR, 6 mM ATP, 5 μM NRK1 and 5 μM NMNAT1, RT; relative to NR. As for the experimental part:
as §1, §2, §3

T4 sequence (P11411 whole entry): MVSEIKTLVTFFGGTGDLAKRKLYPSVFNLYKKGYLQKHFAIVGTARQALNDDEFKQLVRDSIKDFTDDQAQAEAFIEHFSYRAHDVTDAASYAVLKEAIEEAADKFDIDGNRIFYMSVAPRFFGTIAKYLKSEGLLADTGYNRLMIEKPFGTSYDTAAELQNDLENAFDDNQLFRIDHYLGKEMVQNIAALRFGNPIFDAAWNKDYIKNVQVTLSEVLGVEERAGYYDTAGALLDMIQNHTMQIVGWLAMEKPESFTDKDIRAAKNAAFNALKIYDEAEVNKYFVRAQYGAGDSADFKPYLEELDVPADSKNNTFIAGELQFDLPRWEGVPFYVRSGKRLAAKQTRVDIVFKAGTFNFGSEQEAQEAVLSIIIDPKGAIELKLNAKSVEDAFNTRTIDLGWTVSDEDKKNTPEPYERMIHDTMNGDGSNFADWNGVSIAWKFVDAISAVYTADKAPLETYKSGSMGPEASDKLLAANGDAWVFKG
T2 sequence (Q9HAN9 with tags, fused parts or gaps): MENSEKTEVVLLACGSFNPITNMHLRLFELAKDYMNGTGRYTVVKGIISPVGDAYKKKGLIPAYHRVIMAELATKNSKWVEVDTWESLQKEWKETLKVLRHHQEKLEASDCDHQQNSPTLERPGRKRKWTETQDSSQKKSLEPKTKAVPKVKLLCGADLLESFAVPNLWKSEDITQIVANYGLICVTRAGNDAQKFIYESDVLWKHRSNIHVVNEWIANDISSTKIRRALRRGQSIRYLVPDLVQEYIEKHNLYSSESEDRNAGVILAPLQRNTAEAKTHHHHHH

For the compound `NC(=O)c1ccc[n+]([C@@H]2O[C@H](COP(=O)([O-])OP(=O)(O)OC[C@H]3O[C@@H](n4cnc5c(=O)[nH]c(N)nc54)[C@H](O)[C@@H]3O)[C@@H](O)[C@H]2O)c1` [NGD^+, nicotinamide guanine dinucleotide, reference compound], at human CD38 [1] (8.3 nM recombinant CD38, 20 mM MES pH 6.5, fluorescence at 410 nm), the Michaelis-Menten constant (Km) (commonly the substrate concentration at which the rate is half of its maximum) was determined as 8.5 ± 0.6 µM.
Regarding `NC(=O)c1ccc[n+](C2SC(COP(=O)([O-])O)C(O)C2O)c1` (stereo not drawn) [S-NMN, 4′-thioribose nicotinamide mononucleotide], at human NMNAT, the “effect of sulfur substitution on substrate activity for human NMNAT” value is “no effect”.
As for `NC(=O)c1ccc[n+]([C@@H]2O[C@H](COP(=O)([O-])OP(=O)(O)OC[C@H]3O[C@@H](n4cnc5c(N)ncnc54)[C@H](O)[C@@H]3O)[C@@H](O)[C@H]2O)c1` [NAD^+, Nicotinamide adenine dinucleotide, reference compound], on human CD38 [2], the “fate of compound after overnight reaction with CD38 (HPLC)” value was “completely consumed”. Further, in assay [3], the “HPLC analysis of reduction by bovine GDH” value was “enzyme-dependent formation of NADH and S-NADH peaks”. Moreover, in assay [4], the “HPLC analysis of reduction by L. mesenteroides G6PDH” value was “enzyme-dependent formation of NADH and S-NADH peaks”.
As for `NC(=O)c1ccc[n+]([C@@H]2S[C@H](CO)[C@@H](O)[C@H]2O)c1.[Br-]` [S—NR, 3-carbamoyl-1-((2R,3R,4S,5R)-3,4-dihydroxy-5-(hydroxymethyl)tetrahydrothiophen-2-yl)pyridin-1-ium], the “effect of sulfur substitution on substrate activity for human NRK” value in the assay on human NRK is “no effect”.
Turning to `NC(=O)c1ccc[n+]([C@@H]2S[C@H](COP(=O)(O)OP(=O)([O-])OC[C@H]3O[C@@H](n4cnc5c(N)ncnc54)[C@H](O)[C@@H]3O)[C@@H](O)[C@H]2O)c1` (stereo in doubt) [S-NAD^+, 4′-thioribose NAD+], the “slow-onset inhibition of CD38” value at human CD38 [1] (direct competition assays with extended incubation or preincubating CD38 with S-NAD+) is “no slow-onset inhibition was observed”. Further, the “fate of compound after overnight reaction with CD38 (HPLC)” value at human CD38 [2] is “still remained unchanged”. In addition, the “reduction by bovine GDH monitored by UV absorbance at 340 nm” value in assay [3] (0.1 mM compound, 1 mM L-glutamate, 0.1 unit/ml GDH, 15 minutes, room temperature) was “characteristic increases of UV absorbance at 340 nm”. In addition, in assay [3], the “HPLC analysis of reduction by bovine GDH” value is “enzyme-dependent formation of NADH and S-NADH peaks”. Besides, the “reduction by L. mesenteroides G6PDH monitored by UV absorbance at 340 nm” value in assay [4] (0.01 unit/ml G6PDH, 15 minutes, room temperature) was “characteristic increases of UV absorbance at 340 nm”. In assay [4], the “HPLC analysis of reduction by L. mesenteroides G6PDH” value was “enzyme-dependent formation of NADH and S-NADH peaks”.
